Laboratory results: article PMC8237267 (Journal of Medicinal Chemistry, 2021)
Entries after “also recorded” stand apart in the source; their conditions may differ.

How the values were obtained:
HDAC2 = molecular target: T1, HDAC2 (Homo sapiens, UniProt Q92769); test: HDAC EMSA activity assay (Nanosyn); assay type: biochemical
T1 construct: The full-length human HDACs were recombinantly expressed and purified from SF9 insect cells; host or cells: SF9 insect cells

CD-1 mice = test: Maximum tolerated dose / 5 day toxicity study; assay type: in vivo; settings: 20 mg/kg P.O., daily for 5 days, listed as KT-531, 20 mg/kg
Procedure: Acute toxicity of the lead inhibitors was studied using 4–12 week old male CD-1 mice (Charles River). A concentration of 20 mg/kg of inhibitor via oral gavage was administered to mice (n = 5) over 5 days. The vehicle consisted of 10% DMSO, 5% Cremophor EL, and 85% saline. Mice were monitored daily for toxicity effects including excessive changes in weight and hair as well as changes to posture and inactivity. All mouse studies were approved by the Local Animal Care Committee at the University of Toronto and Office of Laboratory Animal Welfare (OLAW). The mice were housed in Tecniplast Blueline ventilated cages with environmental enrichment and fed a Teklad 2019 diet supplemented with municipal water.

acetylated α-tubulin = test: Western blot in MV4-11 cells; assay type: cell-based; settings: MV4-11, 6 h, higher inhibitor concentrations
Procedure: Briefly, MV4-11 cells were incubated with inhibitors prior to cell lysis with radioimmunoprecipitation assay (RIPA) buffer (20 mM Tris pH 7.4, 150 mM NaCl, 0.5% deoxycholate, 1% Triton X-100, and 0.1% sodium dodecyl sulfate (SDS)). Total protein content was determined through a BCA assay (ThermoFisher), resolved via a 4–20% polyacrylamide SDS gel, and transferred to a nitrocellulose membrane (Bio-Rad). The membranes were blocked with a 5% solution (skimmed milk powder in PBS-T). This was followed by incubation at 4 °C (overnight) with the following antibodies: acetylated α-tubulin mouse monoclonal (MABT868, EMD Millipore), acetylated histone H3 (Ac-Lys18, 07–354, Sigma), PARP-1 (ab227244, Abcam), apoptosis Western blot cocktail (136812, Abcam), cleaved PARP-1 (ab32561, Abcam), and HSC70 (sc-7298, Santa Cruz). Following overnight incubation, horseradish peroxidase (HRP)-conjugated goat anti-mouse IgG secondary antibody (7076, Cell Signaling) or HRP-linked anti-rabbit IgG secondary antibody (7074, Cell Signaling) was applied to the membrane in a 1:5000 dilution. The bands were visualized using clarity Western ECL substrate luminal/enhancer solution and peroxide solution. Western blotting analysis was carried out using Image lab software (Bio-Rad).[47],[50],[70]

HDAC6 = molecular target: T2, HDAC6 (Homo sapiens, UniProt Q9UBN7); test: Determination of Ki (Kon kinetics); assay type: biochemical; settings: time-dependent inhibition Kon experiment
T2 sequence (Q9UBN7 1-1215): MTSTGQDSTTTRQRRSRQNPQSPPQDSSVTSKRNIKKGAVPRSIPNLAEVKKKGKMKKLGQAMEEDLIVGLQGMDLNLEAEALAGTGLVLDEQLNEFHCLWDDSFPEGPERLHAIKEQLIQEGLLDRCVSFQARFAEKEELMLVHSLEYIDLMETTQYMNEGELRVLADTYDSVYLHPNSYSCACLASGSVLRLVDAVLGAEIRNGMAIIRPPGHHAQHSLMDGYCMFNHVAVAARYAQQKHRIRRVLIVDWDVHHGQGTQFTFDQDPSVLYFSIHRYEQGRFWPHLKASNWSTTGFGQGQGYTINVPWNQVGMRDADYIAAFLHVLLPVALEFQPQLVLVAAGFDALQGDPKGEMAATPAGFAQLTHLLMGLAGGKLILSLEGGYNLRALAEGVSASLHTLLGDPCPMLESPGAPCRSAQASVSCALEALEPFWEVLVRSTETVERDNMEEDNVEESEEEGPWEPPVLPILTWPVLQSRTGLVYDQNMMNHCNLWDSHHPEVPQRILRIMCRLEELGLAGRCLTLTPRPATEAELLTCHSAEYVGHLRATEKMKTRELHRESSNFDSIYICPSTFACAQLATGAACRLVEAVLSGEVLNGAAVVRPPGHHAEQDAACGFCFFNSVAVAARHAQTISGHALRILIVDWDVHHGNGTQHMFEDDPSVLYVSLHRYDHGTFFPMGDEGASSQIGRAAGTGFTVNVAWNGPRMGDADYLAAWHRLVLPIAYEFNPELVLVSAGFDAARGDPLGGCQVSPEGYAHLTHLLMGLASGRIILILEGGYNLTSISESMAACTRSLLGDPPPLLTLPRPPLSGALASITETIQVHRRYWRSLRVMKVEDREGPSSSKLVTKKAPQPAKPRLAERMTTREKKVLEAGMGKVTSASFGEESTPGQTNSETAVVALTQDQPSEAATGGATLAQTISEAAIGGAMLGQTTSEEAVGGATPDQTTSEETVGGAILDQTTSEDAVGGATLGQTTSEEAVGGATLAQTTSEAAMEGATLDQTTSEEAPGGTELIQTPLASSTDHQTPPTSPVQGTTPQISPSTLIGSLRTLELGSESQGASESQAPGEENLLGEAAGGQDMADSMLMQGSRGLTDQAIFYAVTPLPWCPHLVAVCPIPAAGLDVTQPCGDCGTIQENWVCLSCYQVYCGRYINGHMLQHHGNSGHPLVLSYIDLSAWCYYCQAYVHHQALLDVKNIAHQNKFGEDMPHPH
Procedure: Serial dilutions of compound were mixed with 3 nM HDAC6 enzyme and substrate peptide in assay buffer. Progress curves were acquired without preincubation for ∼5 h on a Labchip3000 instrument. Progress curves in the presence of compound were fit with the following equation: ((A + (Vs × x)) + (((Vo – Vs) × (1 – exp((−1 × Kobs) × t)))/Kobs)). To determine observed rate of inhibition, Vo was locked to that in control (Vi, DMSO only). Fractional steady state velocity (Vs/Vi) and Kobs values were plotted against [compound] to determine Ki and residence time.

MV4-11 cells = test: FACS apoptosis detection assay (Annexin V/PI); assay type: cell-based; settings: MV4-11, 18 h, listed as KT-531
Procedure: MV4-11 cells were prepared, dosed, and washed with cold 1× PBS. The resulting cell pellets were resuspended in 1× Binding Buffer (1 × 10^6 cell/mL) from the FITC Annexin V Apoptosis Detection Kit I (BD Pharmingen). Subsequently, the dyes annexin V (5 μL) and propidium iodide (PI, 5 μL) were added to 2.5 × 10^5 cells (250 μL). The suspension was thoroughly mixed and incubated in the dark for 15 min. Following the addition of 250 μL of 1× binding buffer, the cells were analyzed by flow cytometry within 1 h using the Cytoflex S system (Beckman Coulter).

T1 sequence (Q92769 whole entry): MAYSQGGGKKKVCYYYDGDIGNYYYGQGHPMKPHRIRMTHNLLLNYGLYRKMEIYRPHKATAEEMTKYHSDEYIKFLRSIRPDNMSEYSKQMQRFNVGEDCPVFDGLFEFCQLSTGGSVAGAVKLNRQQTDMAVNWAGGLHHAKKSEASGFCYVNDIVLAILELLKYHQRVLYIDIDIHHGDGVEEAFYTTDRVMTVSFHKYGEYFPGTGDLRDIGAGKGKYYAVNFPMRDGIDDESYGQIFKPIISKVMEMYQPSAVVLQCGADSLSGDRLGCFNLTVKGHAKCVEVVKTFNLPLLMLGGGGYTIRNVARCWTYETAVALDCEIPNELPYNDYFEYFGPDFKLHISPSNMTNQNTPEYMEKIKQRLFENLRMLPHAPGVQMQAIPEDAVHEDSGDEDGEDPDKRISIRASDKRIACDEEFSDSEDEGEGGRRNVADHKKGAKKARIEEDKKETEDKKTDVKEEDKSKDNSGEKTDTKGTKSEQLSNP

O=C(NO)c1ccc(CN(C2CC2)S(=O)(=O)c2cc(F)c(F)c(F)c2F)cc1 [Compound 14, 4-(((N-Cyclopropyl-2,3,4,5-tetrafluorophenyl)sulfonamido)methyl)-N-hydroxybenzamide]
IC50 (HDAC2): > 1 µM
in vivo toxicity (CD-1 mice): no visible signs of toxicity or weight loss; also recorded: no observable toxicity in vivo
acetylated α-tubulin levels (Western blot) (acetylated α-tubulin): comparable between citarinostat and KT-531
Ki (HDAC6): 0.0173 µM
Early Apoptosis (MV4-11 cells; 0.5 μM): 15%
Late Apoptosis (MV4-11 cells; 1 μM): 22%
Healthy (nonapoptotic) (MV4-11 cells; 2 μM): 8%
